According to PubChem BioAssay (NCI):
Values joined by “and” are separate entries in the source; they are usually repeats but may differ in a detail not shown here. Identical values can stand only once.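 Dose response: 5 concentrations. Exposure: 48 h. Format: 96-well plates. Endpoint: linear interpolation; highest concentration if not reached. Here, GI50 denotes the concentration required for 50% inhibition of growth. At the TGI there is no net growth.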

Assays:
Test in all cases: inhibition of tumour cell growth, NCI panel, 48 h
HCT-116 colon = test system: HCT-116 colon
A498 renal = test system: A498 renal
HS 578T breast = test system: HS 578T breast
ACHN renal = test system: ACHN renal
SW-620 colon = test system: SW-620 colon
SF-539 CNS = test system: SF-539 CNS
OVCAR-8 ovarian = test system: OVCAR-8 ovarian
NCI-H460 lung = test system: NCI-H460 lung
A549 NSCLC = test system: A549 NSCLC
SK-MEL-2 melanoma = test system: SK-MEL-2 melanoma
SK-OV-3 ovarian = test system: SK-OV-3 ovarian
HOP-62 NSCLC = test system: HOP-62 NSCLC
TK-10 renal = test system: TK-10 renal
KM12 colon = test system: KM12 colon
LOX IMVI melanoma = test system: LOX IMVI melanoma

Compound	TGI (HCT-116 colon)	TGI (A498 renal)	TGI (HS 578T breast)	TGI (ACHN renal)	TGI (SW-620 colon)	TGI (SF-539 CNS)	TGI (OVCAR-8 ovarian)	TGI (NCI-H460 lung)	TGI (A549 NSCLC)	TGI (SK-MEL-2 melanoma)	TGI (SK-OV-3 ovarian)	TGI (HOP-62 NSCLC)	TGI (TK-10 renal)	TGI (KM12 colon)	TGI (LOX IMVI melanoma)	GI50 (OVCAR-8 ovarian)	GI50 (NCI-H460 lung)	GI50 (HOP-62 NSCLC)	GI50 (KM12 colon)	GI50 (LOX IMVI melanoma)
C#CC(O)/C=C/CCCCCCC#CC/C=C\CC#CCCCCCCCCC(O)C#C (stereo unspecified)	7.77 µM	28.9 µM	38.3 µM	29.5 µM	14.2 µM	40.4 µM	5.11 µM	41.5 µM	25.8 µM	9.44 µM	32.3 µM	12 µM	28.2 µM	11.5 µM	< 0.0261 µM	–	–	–	–	–
Cn1cc(S(=O)(=O)NC(=O)Nc2ccc(Cl)cc2)c(=O)c2ccc(F)cc21	> 100 µM	> 100 µM	> 100 µM	> 100 µM	> 100 µM	> 100 µM	> 100 µM	> 100 µM	> 100 µM	> 100 µM	> 100 µM	> 100 µM	> 100 µM	> 100 µM	> 100 µM	–	–	–	–	–
CC1(C)COC2=C(C1)C(=O)c1ccccc1C2=O	1.7 µM	3.56 µM	7.95 µM	2.9 µM	4.03 µM	2.9 µM	1.53 µM	3.64 µM	4.76 µM	3.88 µM	3.72 µM	3.45 µM	3.19 µM	3.23 µM	4.22 µM	–	–	–	–	–
Cc1nc2sc(C(=O)c3ccc(Cl)cc3)c(N)c2c(-c2ccccc2Cl)c1C(=O)Nc1ccccc1	26.8 µM	48 µM	48.7 µM	67.7 µM	29.4 µM	30.5 µM	47.1 µM	28.8 µM	31.4 µM	32.8 µM	31.3 µM	37 µM	39.3 µM	50 µM	31.7 µM	–	–	–	–	–
COC1(CC[C@@H](C)COC2OC(CO)C(O)C(O)C2O)O[C@H]2C[C@H]3[C@@H]4CC=C5C[C@@H](OC6OC(CO)C(O)C(OC7OC(CO)C(O)C(O)C7O)C6OC6OC(C)C(O)C(O)C6O)CC[C@]5(C)[C@H]4CC[C@]3(C)[C@H]2[C@@H]1C (stereo partly specified)	34.9 µM	26.9 µM	22.2 µM	30.1 µM	6.51 µM	7.11 µM	59.7 µM	14.8 µM	9.36 µM	29.2 µM	15 µM	24.3 µM	43.8 µM	4.36 µM	7.03 µM	–	–	–	–	–
COc1cc(OC)c2c(c1)OC(c1cccnc1)C(c1ccccc1)C2=O (stereo unspecified)	> 100 µM	> 100 µM	> 100 µM	> 100 µM	> 100 µM	> 100 µM	> 100 µM	> 100 µM	> 100 µM	> 100 µM	> 100 µM	> 100 µM	> 100 µM	> 100 µM	> 100 µM	–	–	–	–	–
Cc1ccc2c(c1)nc1n2C(N)=Nc2ccccc2S1	> 100 µM	> 91.6 µM	> 100 µM	> 100 µM	> 100 µM	> 100 µM	> 100 µM	> 100 µM	> 100 µM	> 100 µM	> 100 µM	> 100 µM	> 100 µM	> 100 µM	> 100 µM	–	–	–	–	–
COC(=O)Nc1nc2ccc(S(=O)(=O)N3CCOCC3)cc2[nH]1	> 100 µM	> 100 µM	> 100 µM	> 100 µM	> 100 µM	31 µM	> 100 µM	> 100 µM	> 100 µM	> 100 µM	> 100 µM	> 100 µM	> 100 µM	> 100 µM	> 100 µM	–	–	–	–	–
CCOC(=O)/C=C(\C(=O)OCC)n1cc(C)c(=O)n(Cc2cnnn2COCCOC(C)=O)c1=O	22.2 µM	35.9 µM	46.8 µM	7.46 µM	9.92 µM	6.89 µM	20.6 µM	35.6 µM	47.1 µM	41.7 µM	> 100 µM	55.6 µM	10.8 µM	31.8 µM	21 µM	–	–	–	–	–
CCc1c(-c2ccc(OC)cc2)oc(OC)c(C)c1=O	> 100 µM	> 100 µM	> 100 µM	> 100 µM	> 100 µM	> 100 µM	> 100 µM	> 100 µM	> 100 µM	> 100 µM	> 100 µM	> 100 µM	> 100 µM	> 100 µM	> 100 µM	–	–	–	–	–
CC(C)=CC(=O)c1[nH]c2ccccc2c1CC(=O)NCCc1cncn1C	> 100 µM	91.9 µM	> 100 µM	> 100 µM	> 100 µM	> 100 µM	> 100 µM	> 100 µM	> 100 µM	> 100 µM	> 100 µM	–	> 100 µM	> 100 µM	> 100 µM	–	–	–	–	–
O=C(Cn1c(C(=O)c2ccccc2)nc2ccccc21)c1ccccc1	> 100 µM	> 100 µM	> 100 µM	> 100 µM	> 100 µM	> 100 µM	> 100 µM	> 100 µM	> 100 µM	> 100 µM	> 100 µM	> 100 µM	> 100 µM	> 100 µM	> 100 µM	–	–	–	–	–
O=C1CSC(c2cccc(Cl)c2)N1c1ccc(-c2ccc(-n3c(-c4ccccc4)nc4ccccc4c3=O)cc2)cc1 (stereo unspecified)	> 100 µM	> 100 µM	> 100 µM	> 100 µM	> 100 µM	> 100 µM	> 100 µM	> 100 µM	> 100 µM	> 100 µM	> 100 µM	> 100 µM	> 100 µM	> 100 µM	> 100 µM	–	–	–	–	–
O=c1[nH]c(NCc2ccc(Cl)cc2)nc2nc[nH]c12	> 100 µM	> 100 µM	> 100 µM	> 100 µM	> 100 µM	> 100 µM	> 100 µM	> 100 µM	> 100 µM	> 100 µM	> 100 µM	> 100 µM	> 100 µM	> 100 µM	> 100 µM	–	–	–	–	–
CC(C)(C)N/N=C(\C(=O)NC1=C(Cl)C(=O)c2ccccc2C1=O)C1C=CCS1(=O)=O (stereo unspecified)	35 µM	36.7 µM	64.8 µM	55.3 µM	> 100 µM	54.2 µM	72 µM	22 µM	38.5 µM	24.9 µM	> 100 µM	–	> 100 µM	> 100 µM	39.7 µM	–	–	–	–	–
Cn1c(=O)c2c(nc3sc4ccccc4c(=O)n32)n(C)c1=O	> 100 µM	> 100 µM	> 100 µM	> 100 µM	> 100 µM	> 100 µM	> 100 µM	> 100 µM	–	> 100 µM	> 100 µM	> 100 µM	> 100 µM	> 100 µM	> 100 µM	–	–	–	–	–
COc1ccccc1C1(c2c(OC)c(=O)c2=O)SCCCS1	> 100 µM	> 100 µM	> 100 µM	> 100 µM	> 100 µM	> 100 µM	> 100 µM	> 100 µM	> 100 µM	> 100 µM	> 100 µM	> 100 µM	> 100 µM	> 100 µM	> 100 µM	–	–	–	–	–
CC1(C)OC2OC(C(COS(=O)(=O)C(F)(F)F)N=[N+]=[N-])C(OC(=O)c3ccccc3)C2O1 (stereo unspecified)	> 100 µM	> 100 µM	> 100 µM	> 100 µM	> 100 µM	> 100 µM	> 100 µM	> 100 µM	> 100 µM	> 100 µM	> 100 µM	> 100 µM	> 100 µM	> 100 µM	> 100 µM	–	–	–	–	–
Cc1ccc(C2(c3ccc(F)cc3)OC(=O)c3ccccc32)c(O)c1 (stereo unspecified)	26.2 µM	36.7 µM	77.4 µM	28.2 µM	30.6 µM	37.5 µM	48 µM	35.5 µM	47.2 µM	30.2 µM	26.4 µM	28.8 µM	29.6 µM	51.6 µM	26.9 µM	–	–	–	–	–
Cc1ccc2nc(-c3ccc(C(C)(C)C)cc3)oc(=O)c2c1	51.9 µM	62.8 µM	81.3 µM	36.6 µM	> 100 µM	40.6 µM	43.9 µM	41.6 µM	> 100 µM	56.7 µM	62.1 µM	68.4 µM	> 100 µM	20.3 µM	32.3 µM	–	–	–	–	–
CCCCCCCCCCCCCCCCNc1ccn(C2CC(O)C(COC(c3ccccc3)(c3ccccc3)c3ccc(OC)cc3)O2)c(=O)n1 (stereo unspecified)	> 100 µM	> 100 µM	> 100 µM	> 100 µM	> 100 µM	> 100 µM	> 100 µM	> 100 µM	> 100 µM	> 100 µM	> 100 µM	> 100 µM	> 100 µM	> 100 µM	> 100 µM	–	–	–	–	–
COc1cc2c(/C=C3/C(=O)Nc4ccc(Cl)cc43)c(Cl)[nH]c2cc1C	10.7 µM	22.9 µM	19 µM	10.8 µM	19.7 µM	0.638 µM	19.7 µM	13.9 µM	16.2 µM	29.8 µM	10.6 µM	13.7 µM	8.48 µM	10 µM	6.25 µM	–	–	–	–	–
C/C(=N\O)c1cccc[n+]1Cc1ccccc1	> 100 µM	> 100 µM	> 100 µM	> 100 µM	> 100 µM	> 100 µM	> 100 µM	> 100 µM	> 100 µM	> 100 µM	> 100 µM	> 100 µM	> 100 µM	> 100 µM	> 100 µM	–	–	–	–	–
Cc1cccc(CC(Cc2ccc(C)cc2C(=O)O)C(=O)O)c1 (stereo unspecified)	> 100 µM	> 100 µM	> 100 µM	> 100 µM	> 100 µM	> 100 µM	> 100 µM	> 100 µM	> 100 µM	> 100 µM	> 100 µM	> 100 µM	> 100 µM	> 100 µM	> 100 µM	–	–	–	–	–
CC1OC(OC2C(O[C@H]3CC[C@@]4(C)C(=CC[C@H]5[C@@H]6C[C@@H]7O[C@]8(CC[C@@H](C)CO8)[C@@H](C)[C@@H]7[C@@]6(C)CC[C@@H]54)C3)OC(CO)C(O)C2O)C(O)C(O)C1O (stereo partly specified)	3.95 µM	2.98 µM	3.85 µM	3.44 µM	2.31 µM	4.53 µM	3.63 µM	2.34 µM	1.76 µM	6.21 µM	6.14 µM	2.67 µM	3.57 µM	2.19 µM	3.49 µM	–	–	–	–	–
O=C(O)[C@H](CCC[C@H]1C(=O)O[C@H](c2ccccc2)[C@H](c2ccccc2)N1C(=O)OCc1ccccc1)N[C@@H](c1ccccc1)[C@H](O)c1ccccc1	44.9 µM	62.1 µM	58.9 µM	> 100 µM	68.5 µM	34.4 µM	45.7 µM	> 100 µM	> 100 µM	40.8 µM	> 100 µM	39 µM	> 100 µM	40.4 µM	51.9 µM	–	–	–	–	–
CC1=CP(=O)(c2c(C(C)C)cc(C(C)C)cc2C(C)C)CCC1Cl (stereo unspecified)	38.4 µM	30.4 µM	> 100 µM	31.5 µM	69.9 µM	32.9 µM	52.9 µM	35.3 µM	32.7 µM	31.4 µM	36.3 µM	33.9 µM	30.7 µM	40.2 µM	47.2 µM	–	–	–	–	–
COc1ccc(C2C(=O)c3c(OC)cc(OC)cc3OC2c2cccnc2)cc1 (stereo unspecified)	> 100 µM	> 100 µM	> 100 µM	> 100 µM	> 100 µM	> 100 µM	> 100 µM	> 100 µM	> 100 µM	> 100 µM	> 100 µM	> 100 µM	> 100 µM	> 100 µM	> 100 µM	–	–	–	–	–
CN(C)c1ccc(/C=C/c2sc3ccccc3[n+]2C)cc1	10.9 µM and > 100 µM	26.2 µM and 32.7 µM	36.8 µM and 46.1 µM	9.85 µM and 7.49 µM	–	9.91 µM and 17.8 µM	1.17 µM and 6.8 µM	5.28 µM and 7.85 µM	16.7 µM and 17.2 µM	8.88 µM and 5.81 µM	17.1 µM	14.9 µM and > 100 µM	16 µM and 24.9 µM	> 25.2 µM and 5.26 µM	6.87 µM and 3.34 µM	0.0955 µM and 0.387 µM	1.88 µM and 0.744 µM	3.7 µM and 8.53 µM	0.621 µM	2.34 µM and 1.11 µM
